Test results published in ChEMBL document CHEMBL1143256, “Design, synthesis and preliminary pharmacological evaluation of new piperidine and piperazine derivatives as cognition-enhancers” (2008).

test system: Mus musculus; experiment: Antiamnesic activity in sc dosed mouse after 30 mins by passive avoidance test; type: functional; conditions: 0.5 h, read-out: MED

SMILES | minimal effective dose [mg/kg]
CC(=O)NCC1CCCN(S(=O)(=O)c2ccc(F)cc2)C1 (stereo unspecified) | 10
CC(C)S(=O)(=O)N1CCCC(NS(=O)(=O)c2ccc(F)cc2)C1 (stereo unspecified) | 10
CCC(=O)N1CCC(NS(=O)(=O)c2ccc(F)cc2)CC1 | 10
CC(=O)N1CCC(NS(=O)(=O)c2ccc(F)cc2)CC1 | 0.1
CCC(=O)N1CCCC(NS(=O)(=O)c2ccc(F)cc2)C1 (stereo unspecified) | 10
CC(C)S(=O)(=O)NC1CCCN(C(=O)c2ccccc2)C1 (stereo unspecified) | 1
CCC(=O)NCC1CCN(C(=O)c2ccccc2)CC1 | 1
CC(=O)N1CCCC(NS(=O)(=O)c2ccc(F)cc2)C1 (stereo unspecified) | 1
CC(=O)N1CCN(S(=O)(=O)c2ccc(F)cc2)CC1 | 0.01
CCC(=O)NC1CCCN(C(C)=O)C1 (stereo unspecified) | 1
CCC(=O)N1CCC(CNS(=O)(=O)c2ccc(F)cc2)CC1 | 1
CCCN1CCN(S(=O)(=O)c2ccc(F)cc2)CC1 | 1
CCC(=O)NC1CCN(C(=O)c2ccccc2)CC1 | 0.1
CC(=O)N1CCN(C(=O)c2ccccc2)C(=O)C1 | 10
CCC(=O)N1CCN(Cc2ccccc2)CC1 | 10
CC(=O)NC1CCCN(S(=O)(=O)c2ccc(F)cc2)C1 (stereo unspecified) | 1

SMILES | minimal effective dose [mg/kg]
CCC(=O)N1CCN(Cc2ccccc2)C(=O)C1 | 10
CC(=O)N1CCN(C(=O)c2ccccc2)CC1=O | 10
CCC(=O)N1CCN(S(=O)(=O)c2ccc(F)cc2)CC1=O | 0.3
CC(=O)NC1CCN(S(=O)(=O)c2ccc(F)cc2)CC1 [SAPUNIFIRAM] | 0.01
CCC(=O)NC1CCCN(S(=O)(=O)c2ccc(F)cc2)C1 (stereo unspecified) | 1
CCC(=O)N1CCN(S(=O)(=O)c2ccc(F)cc2)CC1 | 0.01
CC(=O)N1CCN(C(=O)c2ccccc2)CC1 | 10
CC(=O)N1CCN(S(=O)(=O)c2ccc(F)cc2)CC1=O | 0.3
O=S(=O)(NCC1CCN(S(=O)(=O)c2ccc(F)cc2)CC1)c1ccc(F)cc1 | 1
CCC(=O)NCC1CCCN(S(=O)(=O)c2ccc(F)cc2)C1 (stereo unspecified) | 10
CCC(=O)NC1CCN(S(=O)(=O)c2ccc(F)cc2)CC1 | 0.1
CC(C)S(=O)(=O)NC1CCCN(S(=O)(=O)c2ccc(F)cc2)C1 (stereo unspecified) | 1
CCC(=O)N1CCCC(NC(=O)c2ccccc2)C1 (stereo unspecified) | 1
CCC(=O)N1CCN(C(=O)c2ccccc2)CC1 [SUNIFIRAM] | 0.001
CCC(=O)N1CCN(C(=O)c2ccccc2)CC1=O | 10
